Results: patent US20070178458A1, “Methods of diagnosis and prognosis of ovarian cancer II” (priority 2003, published 2007)

Key:
KIAA1983 mRNA expression = assay: Change in KIAA1983 expression after treatment with methyl transferase inhibitor, quantitative RT-PCR; assay type: cell-based, human; conditions: 1 μM for 72 hours, relative to GAPDH
Description: (§1) FIG. 5 is a graphical representation showing the change In expression of KIAA1983 in epithelial ovarian cancer cell lines following treatment with the methyl transferase inhibitor 5-AZA (1 μM) for 72 hours, as determined by quantitative RT-PCR. The non-transformed cell line HOSE 6-3 was used as a control. Ovarian cancer cell lines were IGROV1, TOV21 G, OV90 and CAOV3. The relative amount of KIAA1983 mRNA in each cell line before (filled) and after (unfilled) treatment with methylation inhibitor was determined by comparison to a standard housekeeping gene (GAPDH), and is expressed as a fold change in expression level following treatment.
Total RNA was isolated from the normal and tumour cell lines, reverse transcribed into cDNA and used as template in a quantitative PCR using a LightCycler system (Roche Diagnostics). The relative amount of each gene product was determined by comparison to a standard housekeeping gene (GAPDH).
Thus, KIAA1983 is susceptible to gene silencing by hypermethylation thereby contributing to its reduced expression in epithelial ovarian cancers.

MGC1136 expression = assay: Change in MGC1136 expression after treatment with methylation inhibitor, quantitative RT-PCR; assay type: cell-based, human; conditions: 1 μM for 72 hours, adjusted for GAPDH
Description: as §1
FIG. 9 is a graphical representation showing MGC1136 expression in IGROV, TOV21G and CaOV3 cells, in the presence (+) or absence (−) of the methylation inhibitor 5AZA (1 μM 5AZA for 72 hours). MGC1136 expression is represented as a relative fold change in expression in each cell line following treatment with 5AZA, and adjusted for the level of the housekeeping gene GAPDH. Experiments were performed as described in the legend for FIG. 5.
However, expression of MGC1136 is not increased in TOV21 G cells (clear cell ovarian cancer) following treatment with the methylation inhibitor 5AZA. Thus, loss of MGC1136 expression by methylation of the MGC1136 promoter may be restricted to particular histological phenotypes of epithelial ovarian cancer.

expression of KIAA1983 following treatment (KIAA1983 mRNA expression; normal ovarian cells (non-transformed HOSE 6-3 control)): note modulated
Structure (SMILES): Nc1ncn([C@H]2C[C@H](O)[C@@H](CO)O2)c(=O)n1 [5-AZA, 5-aza-2′deoxycytodine]
expression of KIAA1983 mRNA following treatment (KIAA1983 mRNA expression; epithelial ovarian cancer cell lines having reduced expression of KIAA1983 (IGROV1, TOV21G, OV90, CAOV3)): removes the block in expression of KIAA1983 mRNA | expression of MGC1136 following treatment (MGC1136 expression; CaOV3 cell line (serous epithelial ovarian cancer)): marked increase in expression of MGC1136 | expression of MGC1136 following treatment (MGC1136 expression; IGROV cell line (serous epithelial ovarian cancer)): marked increase in expression of MGC1136 | expression of MGC1136 following treatment (MGC1136 expression; TOV21 G cells (clear cell ovarian cancer)): not increased
